Reference: ChEMBL document CHEMBL4699665, “Discovery of ANT3310, a Novel Broad-Spectrum Serine β-Lactamase Inhibitor of the Diazabicyclooctane Class, Which Strongly Potentiates Meropenem Activity against Carbapenem-Resistant Enterobacterales and Acinetobacter baumannii” (J Med Chem, 2020)

How the values were obtained:
[1] = Inhibition of beta lactamase AmpC in Enterobacter cloacae assessed as decrease in enzyme activity using nitrocefin as substrate preincubated for 10 mins followed by substrate addition measured for 10 mins by fluorescence plate reader analysis
Klebsiella pneumoniae [2] = assay: Potentiation of meropenem-induced antibacterial activity against Klebsiella Pneumoniae NR-48977 expressing KPC-2 infected in CD-1 mouse assessed as reduction in bacterial burden co administered with 300 mg/kg, iv meropenem; type: functional, organism-based; settings: dose mg/kg 25-100
Acinetobacter baumannii [3] = assay: Inhibition of beta lactamase OXA in carbapenem-resistant Acinetobacter baumannii assessed as meropenem maximum concentration required for antibacterial activity at 4 ug/ml by broth microdilution method (Rvb > 32 ug/ml); settings: dose 4.0 µg/ml
Acinetobacter baumannii [4] = assay: Inhibition of beta lactamase OXA in carbapenem-resistant Acinetobacter baumannii assessed as meropenem-induced antibacterial activity by measuring meropenem MIC90 at 4 ug/ml by broth microdilution method (Rvb > 32 ug/ml); settings: dose 4.0 µg/ml
Acinetobacter baumannii [5] = assay: Inhibition of beta lactamase OXA in carbapenem-resistant Acinetobacter baumannii assessed as meropenem minimum concentration required for antibacterial activity at 4 ug/ml by broth microdilution method (reference value: 8 ug/ml); settings: dose 4.0 µg/ml
[6] = Plasma protein binding in rat assessed as fraction unbound by LC-MS/MS analysis; type: ADME, cell-free
Cytochrome P450 2C19 = Cytochrome P450 2C19 (Homo sapiens, UniProt P33261); assay: Inhibition of CYP2C19 in human liver microsomes in presence of NADPH by LC-MS/MS analysis; type: ADME
[7] = Stability in dog plasma assessed as parent compound remaining after 1 hr; type: ADME, cell-free, Canis lupus familiaris; settings: read-out: Stabilty
Enterobacter cloacae [8] = assay: Potentiation of meropenem-induced antibacterial activity against Enterobacter cloacae expressing TEM-1/KPC-2 assessed as meropenem MIC at 4 ug/ml by broth microdilution method (reference value: 8 ug/ml); type: functional; settings: dose 4 µg/ml
Cytochrome P450 2D6 = Cytochrome P450 2D6 (Homo sapiens, UniProt P10635); assay: Inhibition of CYP2D6 in human liver microsomes in presence of NADPH by LC-MS/MS analysis; type: ADME
Klebsiella pneumoniae [9] = assay: Potentiation of meropenem-induced antibacterial activity against Klebsiella pneumoniae expressing TEM-1/SHV-11/KPC-3 assessed as meropenem MIC at 4 ug/ml by broth microdilution method (reference value: 128 ug/ml); type: functional; settings: dose 4 µg/ml
Enterobacter [10] = assay: Inhibition of beta lactamase OXA in carbapenem-resistant Enterobacter assessed as meropenem maximum concentration required for antibacterial activity at 4 ug/ml by broth microdilution method (Rvb > 32 ug/ml); settings: dose 4.0 µg/ml
Enterobacter [11] = assay: Inhibition of beta lactamase KPC in carbapenem-resistant Enterobacter assessed as meropenem-induced antibacterial activity by measuring meropenem MIC50 at 4 ug/ml by broth microdilution method (Rvb >32 ug/ml); settings: dose 4.0 µg/ml
Enterobacter [12] = assay: Inhibition of beta lactamase OXA in carbapenem-resistant Enterobacter assessed as meropenem minimum concentration required for antibacterial activity at 4 ug/ml by broth microdilution method (reference value: 2 ug/ml); settings: dose 4.0 µg/ml
[13] = Inhibition of beta lactamase CTXM-15 in Enterobacter cloacae assessed as decrease in enzyme activity using nitrocefin as substrate preincubated for 10 mins followed by substrate addition measured for 10 mins by fluorescence plate reader analysis
[14] = Stability in mouse plasma assessed as parent compound remaining after 1 hr; type: ADME, cell-free; settings: read-out: Stabilty
[15] = Inhibition of beta lactamase OXA-48 in Enterobacter cloacae assessed as decrease in enzyme activity using nitrocefin as substrate preincubated for 10 mins followed by substrate addition measured for 10 mins by fluorescence plate reader analysis
Cytochrome P450 1A2 = molecular target: T1, Cytochrome P450 1A2 (Homo sapiens, UniProt P05177); assay: Inhibition of CYP1A2 in human liver microsomes in presence of NADPH by LC-MS/MS analysis; type: ADME
T1 sequence (P05177 whole entry): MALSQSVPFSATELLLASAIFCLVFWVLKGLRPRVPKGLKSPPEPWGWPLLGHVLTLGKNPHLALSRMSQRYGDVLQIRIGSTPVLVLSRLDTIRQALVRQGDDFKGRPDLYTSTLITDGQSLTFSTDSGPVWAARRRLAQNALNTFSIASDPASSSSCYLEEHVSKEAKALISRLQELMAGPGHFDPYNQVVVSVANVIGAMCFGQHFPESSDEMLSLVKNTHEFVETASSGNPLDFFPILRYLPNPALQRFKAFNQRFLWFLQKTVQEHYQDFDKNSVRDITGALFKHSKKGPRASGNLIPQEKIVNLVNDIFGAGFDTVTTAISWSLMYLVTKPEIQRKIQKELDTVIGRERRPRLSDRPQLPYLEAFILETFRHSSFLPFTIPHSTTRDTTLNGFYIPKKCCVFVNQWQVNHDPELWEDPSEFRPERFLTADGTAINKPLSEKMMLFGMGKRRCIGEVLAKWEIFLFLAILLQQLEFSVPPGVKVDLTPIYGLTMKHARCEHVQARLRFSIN

Acinetobacter baumannii [16] = assay: Inhibition of beta lactamase OXA in carbapenem-resistant Acinetobacter baumannii assessed as meropenem-induced antibacterial activity by measuring meropenem MIC50 at 4 ug/ml by broth microdilution method (Rvb > 32 ug/ml); settings: dose 4.0 µg/ml
[17] = Inhibition of beta lactamase KPC-2 in Enterobacter cloacae assessed as decrease in enzyme activity using nitrocefin as substrate preincubated for 10 mins followed by substrate addition measured for 10 mins by fluorescence plate reader analysis
[18] = Intrinsic clearance in human hepatocytes assessed per million cells; type: ADME, cell-based, Hepatocyte; settings: read-out: CLH
Enterobacter [19] = assay: Inhibition of beta lactamase KPC in carbapenem-resistant Enterobacter assessed as meropenem maximum concentration required for antibacterial activity at 4 ug/ml by broth microdilution method (Rvb >32 ug/ml); settings: dose 4.0 µg/ml
Enterobacter cloacae [20] = assay: Antibacterial activity against Enterobacter cloacae expressing TEM-1/KPC-2 by broth microdilution method; type: functional
[21] = Half life in rat at 1 mg/kg, iv; type: ADME, organism-based; settings: in vivo
Cytochrome P450 3A4 = Cytochrome P450 3A4 (Homo sapiens, UniProt P08684); assay: Inhibition of CYP3A4 in human liver microsomes in presence of NADPH by LC-MS/MS analysis; type: ADME
[22] = Genotoxicity in Salmonella typhimurium by Ames test; type: toxicity; settings: salmonella enterica subsp. enterica serovar typhimurium
Acinetobacter baumannii [23] = assay: Potentiation of meropenem-induced antibacterial activity against Acinetobacter baumannii expressing OXA-23 assessed as meropenem MIC at 4 ug/ml by broth microdilution method (reference value: 32 ug/ml); type: functional; settings: dose 4 µg/ml
[24] = Inhibition of beta lactamase TEM-1 in Enterobacter cloacae assessed as decrease in enzyme activity using nitrocefin as substrate preincubated for 10 mins followed by substrate addition measured for 10 mins by fluorescence plate reader analysis
[25] = AUC in rat at 1 mg/kg, iv; type: ADME, organism-based; design: dose 1 mg/kg; settings: in vivo
Enterobacter [26] = assay: Inhibition of beta lactamase OXA in carbapenem-resistant Enterobacter assessed as meropenem-induced antibacterial activity by measuring meropenem MIC50 at 4 ug/ml by broth microdilution method (reference value: 16 ug/ml); settings: dose 4.0 µg/ml
[27] = Intrinsic clearance in rat hepatocytes assessed per million cells; type: ADME, cell-based, Hepatocyte; settings: read-out: CLH
Enterobacter [28] = assay: Inhibition of beta lactamase KPC in carbapenem-resistant Enterobacter assessed as meropenem-induced antibacterial activity by measuring meropenem MIC90 at 4 ug/ml by broth microdilution method (Rvb >32 ug/ml); settings: dose 4.0 µg/ml

Sequence of Cytochrome P450 2C19 (P33261 whole entry): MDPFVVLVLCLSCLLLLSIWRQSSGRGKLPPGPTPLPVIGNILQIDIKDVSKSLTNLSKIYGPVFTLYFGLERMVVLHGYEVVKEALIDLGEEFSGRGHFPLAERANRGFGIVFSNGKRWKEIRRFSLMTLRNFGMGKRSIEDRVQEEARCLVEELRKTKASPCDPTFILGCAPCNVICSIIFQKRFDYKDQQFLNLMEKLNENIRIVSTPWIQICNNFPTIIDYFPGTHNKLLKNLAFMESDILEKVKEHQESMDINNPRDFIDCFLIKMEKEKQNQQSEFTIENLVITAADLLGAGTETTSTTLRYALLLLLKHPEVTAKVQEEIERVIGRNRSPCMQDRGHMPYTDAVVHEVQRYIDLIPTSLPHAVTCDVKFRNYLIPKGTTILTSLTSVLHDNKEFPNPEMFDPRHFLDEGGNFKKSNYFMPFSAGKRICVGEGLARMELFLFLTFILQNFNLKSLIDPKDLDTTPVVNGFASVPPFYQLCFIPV
Sequence of Cytochrome P450 2D6 (P10635 whole entry): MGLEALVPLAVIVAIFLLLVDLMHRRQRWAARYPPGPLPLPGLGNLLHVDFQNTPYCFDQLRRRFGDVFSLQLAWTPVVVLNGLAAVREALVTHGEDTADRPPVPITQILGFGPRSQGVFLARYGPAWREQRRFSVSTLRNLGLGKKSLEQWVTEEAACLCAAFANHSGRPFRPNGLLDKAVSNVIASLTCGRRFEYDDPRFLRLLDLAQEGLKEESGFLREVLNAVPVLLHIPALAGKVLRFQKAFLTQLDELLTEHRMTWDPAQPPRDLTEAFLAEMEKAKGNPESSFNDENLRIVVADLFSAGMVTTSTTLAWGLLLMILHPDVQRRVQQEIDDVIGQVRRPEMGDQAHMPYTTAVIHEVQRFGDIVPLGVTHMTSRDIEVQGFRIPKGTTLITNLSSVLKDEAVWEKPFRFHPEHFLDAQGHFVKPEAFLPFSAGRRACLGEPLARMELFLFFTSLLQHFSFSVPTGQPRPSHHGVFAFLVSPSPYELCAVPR
Sequence of Cytochrome P450 3A4 (P08684 whole entry): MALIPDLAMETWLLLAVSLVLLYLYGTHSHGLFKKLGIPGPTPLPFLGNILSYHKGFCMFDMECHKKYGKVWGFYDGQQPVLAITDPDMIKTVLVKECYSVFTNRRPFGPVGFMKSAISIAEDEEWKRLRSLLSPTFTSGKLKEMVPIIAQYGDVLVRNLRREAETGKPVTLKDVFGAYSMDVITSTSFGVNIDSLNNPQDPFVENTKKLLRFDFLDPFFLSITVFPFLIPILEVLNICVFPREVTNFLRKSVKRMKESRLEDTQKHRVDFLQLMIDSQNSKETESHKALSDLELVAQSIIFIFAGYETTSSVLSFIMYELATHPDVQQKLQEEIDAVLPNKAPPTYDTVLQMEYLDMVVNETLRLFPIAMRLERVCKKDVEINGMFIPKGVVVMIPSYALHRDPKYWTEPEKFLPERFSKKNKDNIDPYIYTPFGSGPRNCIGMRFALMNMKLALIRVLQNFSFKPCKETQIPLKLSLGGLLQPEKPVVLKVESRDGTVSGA

O=C1N2C[C@@H](CC[C@H]2F)N1OS(=O)(=O)[O-].[Na+]
IC50 [1]: 10 nM
Activity (Klebsiella pneumoniae [2]): Dose-dependent effect
Activity (Acinetobacter baumannii [3]): > 32 µg/mL
MIC90 (Acinetobacter baumannii [4]): 8 µg/mL
MIC (Acinetobacter baumannii [5]): 0.25 µg/mL
fraction unbound [6]: > 0.93
IC50 (Cytochrome P450 2C19): > 50000 nM
remaining at 1 h [7]: 85%
MIC (Enterobacter cloacae [8]): 0.03 µg/mL
IC50 (Cytochrome P450 2D6): > 50000 nM
MIC (Klebsiella pneumoniae [9]): 1 µg/mL
Activity (Enterobacter [10]): 2 µg/mL
MIC50 (Enterobacter [11]): 0.06 µg/mL
MIC (Enterobacter [12]): < 0.03 µg/mL
IC50 [13]: 2 nM
remaining at 1 h [14]: 90%
IC50 [15]: 175 nM
IC50 (Cytochrome P450 1A2): > 50000 nM
MIC50 (Acinetobacter baumannii [16]): 4 µg/mL
IC50 [17]: 19 nM
hepatocyte CLint [18]: < 3.4 µL/min/1e6 cells
Activity (Enterobacter [19]): 16 µg/mL
MIC (Enterobacter cloacae [20]): 128 µg/mL
half-life [21]: 38.4 min
IC50 (Cytochrome P450 3A4): > 50000 nM
Activity [22]: Non-Toxic
MIC (Acinetobacter baumannii [23]): 2 µg/mL
IC50 [24]: 1 nM
AUC [25]: 412 ng·h/mL
MIC50 (Enterobacter [26]): 0.12 µg/mL
hepatocyte CLint [27]: < 3.4 µL/min/1e6 cells
MIC90 (Enterobacter [28]): 1 µg/mL
